According to ChEMBL document CHEMBL4261500, “New tricks for human farnesyltransferase inhibitor: cancer and beyond” (Medchemcomm, 2017):

What was measured:
[1] = biological target: Protein farnesyltransferase (Homo sapiens, UniProt P49354+P49356); test: Inhibition of human EC17 cell-derived FTase using recombinant GST-tagged H-Ras/(3H)-FPP as substrate incubated for 1 hr by liquid scintillation counting method; format: protein-complex assay
A-431 = test: Cytotoxicity against human A431 cells; format: cell-based
[2] = biological target: Protein farnesyltransferase (Rattus norvegicus, UniProt Q02293+Q04631); test: Inhibition of recombinant rat FTase alpha/beta expressed in Escherichia coli using NBD-FPP/GST-tagged H-Ras as substrate incubated for 2 hrs by SDS-PAGE method
A549 = test: Cytotoxicity against human A549 cells assessed as decrease in cell viability after 48 hrs by MTT assay; format: functional, cell-based; conditions: A549, 48 h

## CC[C@@]1(O)C[C@H](O[C@H]2C[C@H]([N+](C)(C)Cc3ccccc3)[C@@H](O[C@H]3C[C@H](O)[C@H](O[C@H]4CCC(=O)[C@H](C)O4)[C@H](C)O3)[C@H](C)O2)c2c(cc3c(c2O)C(=O)c2c(O)cccc2C3=O)[C@H]1C(=O)OC
[1]
  IC50: 0.86 µM
A-431
  IC50: > 10 µM

## COC1=C(OC)[C@H](O)[C@H](C/C=C(\C)CC/C=C(\C)CCC=C(C)C)[C@@H](C)C1=O [ANTROQUINONOL]
[2]
  IC50: 2.99 µM
A549
  IC50: 3.24 µM
